Measurements: BindingDB's records for doi:10.7270/Q2377749 (Nmmlsc, 2010)

Target: Ras-related C3 botulinum toxin substrate 1 (Mus musculus, UniProt P63001)
Assay: inhibition of wildtype Rac1 nucleotide loading – biochemical, multiplex bead flow cytometry, dose response (AID 1340)

SMILES | EC50 [nM]
CCOc1ccc(/C=C2\SC(N3CCc4ccccc4C3)=NC2=O)cc1 [(5Z)-2-(3,4-dihydro-1H-isoquinolin-2-yl)-5-(4-ethoxybenzylidene)-2-thiazolin-4-one] | 4020
O=C(O)/C=C/c1cn(Cc2ccccc2)nc1-c1ccc(Cl)cc1 [(E)-3-[1-benzyl-3-(4-chlorophenyl)pyrazol-4-yl]acrylic acid] | 164
COc1cc(CN=Nc2nnc3c(n2)[nH]c2ccccc23)ccc1O | 634
O=C(NNC(=S)NCc1ccc(Cl)cc1)c1ccc(Br)o1 [1-[(5-bromanylfuran-2-yl)carbonylamino]-3-[(4-chlorophenyl)methyl]thiourea] | 85.7
Cc1cc(C(=O)Cn2nc(C(=O)O)c3ccccc3c2=O)c(C)n1-c1ccc(OC(F)F)cc1 [3-[2-[1-[4-(difluoromethoxy)phenyl]-2,5-dimethyl-3-pyrrolyl]-2-oxoethyl]-4-oxo-1-phthalazinecarboxylic acid] | 5900
COc1cc(C=NNC(=O)c2sc(N)nc2C)cc(OC)c1OC [2-amino-4-methyl-N-[(3,4,5-trimethoxyphenyl)methylideneamino]-5-thiazolecarboxamide] | 1670
CN1C(=O)N(C)c2ccc(C=O)c3cccc1c23 [1,3-dimethyl-2-oxidanylidene-perimidine-6-carbaldehyde] | 20800
OC(CNCCc1ccc(Cl)cc1)COc1ccc2ccccc2c1 (configuration not stated) [1-[2-(4-chlorophenyl)ethylamino]-3-(2-naphthalenyloxy)-2-propanol] | 7190
O=C(O)c1ccccc1NCCc1ccc(Cl)cc1 [2-[2-(4-chlorophenyl)ethylamino]benzoic acid] | 1520
CCOC(=O)c1nc(Nc2ccc(C(C)=O)cc2)c2ccccc2n1 [4-(4-acetylanilino)-2-quinazolinecarboxylic acid ethyl ester] | 3400
O=C(C#Cc1ccccc1)c1cccc([N+](=O)[O-])c1 [1-(3-nitrophenyl)-3-phenyl-2-propyn-1-one] | 19200
O=C(O)c1ccccc1OCc1ccccc1Br [2-(2-bromobenzyl)oxybenzoic acid] | 151
COCCn1c(=S)[nH]c2cc(C(=O)N3CCc4ccccc4C3)ccc2c1=O [SMR000310652] | 605
COc1ccc(-c2nnc(SCC(=O)c3cccs3)o2)cc1 [2-[[5-(4-methoxyphenyl)-1,3,4-oxadiazol-2-yl]sulfanyl]-1-thiophen-2-yl-ethanone] | 6390
Cc1ccc(C)c(OCCn2cc(C(=O)O)c3ccccc32)c1 [1-[2-(2,5-dimethylphenoxy)ethyl]-3-indolecarboxylic acid] | 802
N=C(N)NS(=O)(=O)c1ccc(NC(=S)NC(=O)c2ccc3c(c2)OCO3)cc1 [MLS000621545] | 2800
COc1ccccc1NCc1sc(C(=O)O)cc1C [4-methyl-5-(o-anisidinomethyl)-2-thenoic acid] | 16000
CC1(C)Cc2c(sc(NC(=S)NC(=O)c3ccccc3)c2C(=O)O)CO1 [2-(benzoylcarbamothioylamino)-5,5-dimethyl-4,7-dihydrothieno[2,3-c]pyran-3-carboxylic acid] | 80.6
O=C(Nc1nc(-c2ccc(S(=O)(=O)N3CCCC3)cc2)cs1)c1ccco1 [MLS000049286] | 1760
Cc1ccccc1C(=O)Nc1ccc2c(C#N)c3nc4ccccc4nc3n2c1 [MLS000591720] | 291
O=C1/C(=C\c2cccnc2)Sc2ccccc21 [(2E)-2-(3-pyridinylmethylidene)-1-benzothiophen-3-one] | 93100
O=C(O)c1cn(CCOc2ccccc2)c2ccccc12 [1-(2-phenoxyethyl)-3-indolecarboxylic acid] | 5440
O=C(O)c1ccc(COc2ccccc2Cl)o1 [5-[(2-chloranylphenoxy)methyl]furan-2-carboxylic acid] | 26300
Cc1cc(C)c(C)c(C(=O)c2ccccc2C(=O)O)c1C [2-(2,3,5,6-tetramethylbenzoyl)benzoic acid] | 2240

SMILES | EC50 [nM]
Cc1cc(C(=O)Oc2ccccc2C(=O)O)c(C)o1 [2-(2,5-dimethyl-3-furoyl)oxybenzoic acid] | 102
Cc1sc2nc3ccc(NCc4ccco4)nn3c(=O)c2c1C [7-(2-furanylmethylamino)-2,3-dimethyl-4-thieno[1,2]pyrimido[4,5-b]pyridazinone] | 9210
CC(C)Oc1ccc(C=NNC(=O)c2ccc(N(Cc3ccccc3)S(C)(=O)=O)cc2)cc1 [4-[benzyl(mesyl)amino]-N-[(4-isopropoxybenzylidene)amino]benzamide] | 5170
Cc1cc(C)cc(N=Cc2[nH]c3ccc(Br)c(Cl)c3c2O)c1 [(2Z)-5-bromo-4-chloro-2-[(3,5-dimethylanilino)methylidene]-1H-indol-3-one] | 3030
CCn1nc(C(=O)OCC(=O)c2cc(C)n(Cc3cccs3)c2C)c2ccccc2c1=O [3-ethyl-4-keto-phthalazine-1-carboxylic acid [2-[2,5-dimethyl-1-(2-thenyl)pyrrol-3-yl]-2-keto-ethyl] ester] | 892
Cc1cc(NC(=O)CSc2nc(O)c(C#N)c(-c3ccccc3)n2)no1 [2-[(5-cyano-4-oxidanylidene-6-phenyl-1H-pyrimidin-2-yl)sulfanyl]-N-(5-methyl-1,2-oxazol-3-yl)ethanamide] | 9540
CC(C)C(NCc1c(Cl)cccc1Cl)C(=O)O (configuration not stated) [2-[(2,6-dichlorobenzyl)amino]-3-methyl-butyric acid] | 5800
CCCc1nc2c(=O)n(C)c(=O)nc-2n(C)n1 [1,6-dimethyl-3-propyl-pyrimido[5,4-e][1,2,4]triazine-5,7-dione] | 623
CC(=O)c1c(C)[nH]c(C(=O)N2CCc3ccccc3C2)c1C [1-[5-(3,4-dihydro-1H-isoquinolin-2-ylcarbonyl)-2,4-dimethyl-1H-pyrrol-3-yl]ethanone] | 5130
O=C(COc1ncnc2cc([N+](=O)[O-])ccc12)NCCc1ccc(Cl)cc1 [MLS000335629] | 5410
Cc1cccc(-n2nc(CC#N)c(C#N)c2N)c1 [5-amino-3-(cyanomethyl)-1-(3-methylphenyl)-4-pyrazolecarbonitrile] | 28400
COc1cc(SC#N)ccc1N=Cc1c(C)[nH]n(-c2ccc(C)c(C)c2)c1=O [[4-[[(Z)-[1-(3,4-dimethylphenyl)-3-methyl-5-oxidanylidene-pyrazol-4-ylidene]methyl]amino]-3-methoxy-phenyl] thiocyanate] | 966
O=C(O)CCN1C(=O)/C(=C/c2ccc(-c3nc4ccccc4s3)o2)SC1=S [3-[(5Z)-5-[[5-(1,3-benzothiazol-2-yl)furan-2-yl]methylidene]-4-oxo-2-sulfanylidene-1,3-thiazolidin-3-yl]propanoic acid] | 976
O=C(O)/C=C/c1cn(Cc2ccccc2)nc1-c1cccs1 [(E)-3-(1-benzyl-3-thiophen-2-ylpyrazol-4-yl)prop-2-enoic acid] | 2280
COc1ccc(C(=O)CC=Nc2ccc(S(=O)(=O)Nc3nc(C)cc(C)n3)cc2)cc1OC [4-[3-(3,4-Dimethoxy-phenyl)-3-oxo-propenylamino]-N-(4,6-dimethyl-pyrimidin-2-yl)-benzenesulfonamide] | 3120
COc1ccc(Cl)cc1NCc1sc(C(=O)O)cc1C [5-[(5-chloro-2-methoxy-anilino)methyl]-4-methyl-2-thenoic acid] | 1820
N#Cc1c(-c2ccccc2)nc(SCC(=O)Nc2ccccc2)[nH]c1=O [2-[(5-cyano-4-oxo-6-phenyl-1H-pyrimidin-2-yl)thio]-N-phenylacetamide] | 3540
O=C(O)c1ccccc1NCc1ccccc1Cl [2-[(2-chlorobenzyl)amino]benzoic acid] | 899
CCOC(=O)CN(C(=O)CSc1nnc2c(n1)[nH]c1ccc(OC)cc12)c1ccc(F)cc1 [ethyl 2-[(4-fluorophenyl)-[2-[(8-methoxy-5H-[1,2,4]triazino[5,6-b]indol-3-yl)sulfanyl]ethanoyl]amino]ethanoate] | 923
CCN(CC)c1ccc2cc(-c3nc(-c4ccc(OC)cc4)cs3)c(=O)oc2c1 [7-(diethylamino)-3-[4-(4-methoxyphenyl)-1,3-thiazol-2-yl]chromen-2-one] | 372
O=C(NC1CCCCC1)c1cc([N+](=O)[O-])n[nH]1 [MLS000559279] | 55300
NC(=S)NNC1=c2cc(F)ccc2=NC1=O [[(5-fluoro-2-oxoindol-3-yl)amino]thiourea] | 3460
O=C(O)c1ccccc1Sc1ncnc2sc3c(c12)CCC3 | 1220
